In test [1] the target is human EGFR (native sequence) (Homo sapiens, UniProt P00533). Nature of the test: Kinase inhibitory activity against human EGFR (native sequence). It is filed as biochemical. As to conditions: 10 μM ATP, read-out: IC50 for kinase inhibition, EGFR. The gist of the method:
(§1)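 ATP was held at 10 μM while inhibition was measured across a 10-point series capped at 3 μM, single replicates.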

A further test addresses EGFR L858R (Homo sapiens, UniProt P00533, L858R). Nature of the test: Kinase inhibitory activity against EGFR bearing the L858R mutation. The format is biochemical. As to conditions: 10 μM ATP, read-out: IC50 for kinase inhibition, EGFR L858R. The gist of the method:
as §1

The target in the next test is EGFR L858R/T790M (Homo sapiens, UniProt P00533, L858R/T790M). Description: Kinase inhibitory activity against EGFR bearing the L858R/T790M double mutation. It is filed as biochemical. As to conditions: 10 μM ATP, read-out: IC50 for kinase inhibition, EGFR L858R T790M. In a few lines: as §1
EGFR L858R/T790M, sequence (P00533 25-1210 T790M/L858R): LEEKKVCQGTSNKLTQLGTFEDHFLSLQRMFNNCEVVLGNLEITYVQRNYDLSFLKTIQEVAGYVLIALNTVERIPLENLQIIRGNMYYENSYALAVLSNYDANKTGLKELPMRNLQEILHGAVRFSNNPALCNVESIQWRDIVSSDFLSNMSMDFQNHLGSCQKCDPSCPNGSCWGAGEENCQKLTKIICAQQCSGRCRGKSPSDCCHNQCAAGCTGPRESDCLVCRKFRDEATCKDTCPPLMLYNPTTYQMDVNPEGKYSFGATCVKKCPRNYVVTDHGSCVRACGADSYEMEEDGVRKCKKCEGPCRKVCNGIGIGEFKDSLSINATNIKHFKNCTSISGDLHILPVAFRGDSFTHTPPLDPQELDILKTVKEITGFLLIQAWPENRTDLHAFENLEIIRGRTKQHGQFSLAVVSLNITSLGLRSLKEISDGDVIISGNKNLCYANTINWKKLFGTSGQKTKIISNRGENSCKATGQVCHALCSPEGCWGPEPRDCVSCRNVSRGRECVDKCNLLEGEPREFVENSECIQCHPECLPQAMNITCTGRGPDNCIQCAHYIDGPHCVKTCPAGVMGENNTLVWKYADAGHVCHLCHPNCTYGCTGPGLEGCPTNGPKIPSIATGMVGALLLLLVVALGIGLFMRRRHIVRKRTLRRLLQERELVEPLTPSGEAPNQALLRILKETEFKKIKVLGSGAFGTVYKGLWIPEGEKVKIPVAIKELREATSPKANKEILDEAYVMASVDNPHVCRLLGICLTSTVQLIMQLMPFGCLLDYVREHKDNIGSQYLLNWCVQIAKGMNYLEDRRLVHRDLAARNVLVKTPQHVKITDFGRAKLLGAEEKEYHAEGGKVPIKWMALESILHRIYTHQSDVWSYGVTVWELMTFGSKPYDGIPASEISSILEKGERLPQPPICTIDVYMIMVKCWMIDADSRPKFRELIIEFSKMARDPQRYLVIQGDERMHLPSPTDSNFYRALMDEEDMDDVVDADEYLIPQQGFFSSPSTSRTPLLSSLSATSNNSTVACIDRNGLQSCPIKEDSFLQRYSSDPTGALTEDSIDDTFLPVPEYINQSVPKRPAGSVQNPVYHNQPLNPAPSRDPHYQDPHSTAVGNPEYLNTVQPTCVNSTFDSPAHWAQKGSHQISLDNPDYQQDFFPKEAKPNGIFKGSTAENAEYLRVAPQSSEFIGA
The target of test [2] is T1, BaF3 cells expressing the target EGFR mutations (Homo sapiens, UniProt P00533, T790M, cells depend on it, form not given).
T1 construct: IC50, BAF3 EGFR DEL T790M PURO POOL; other: BAF3 EGFR DEL T790M PURO POOL cells, MTT; other: BAF3 EGFR DEL T790M PURO POOL cells; MTT
T1 sequence (P00533 with tags, fused parts or gaps DEL746-750/T790M, form open): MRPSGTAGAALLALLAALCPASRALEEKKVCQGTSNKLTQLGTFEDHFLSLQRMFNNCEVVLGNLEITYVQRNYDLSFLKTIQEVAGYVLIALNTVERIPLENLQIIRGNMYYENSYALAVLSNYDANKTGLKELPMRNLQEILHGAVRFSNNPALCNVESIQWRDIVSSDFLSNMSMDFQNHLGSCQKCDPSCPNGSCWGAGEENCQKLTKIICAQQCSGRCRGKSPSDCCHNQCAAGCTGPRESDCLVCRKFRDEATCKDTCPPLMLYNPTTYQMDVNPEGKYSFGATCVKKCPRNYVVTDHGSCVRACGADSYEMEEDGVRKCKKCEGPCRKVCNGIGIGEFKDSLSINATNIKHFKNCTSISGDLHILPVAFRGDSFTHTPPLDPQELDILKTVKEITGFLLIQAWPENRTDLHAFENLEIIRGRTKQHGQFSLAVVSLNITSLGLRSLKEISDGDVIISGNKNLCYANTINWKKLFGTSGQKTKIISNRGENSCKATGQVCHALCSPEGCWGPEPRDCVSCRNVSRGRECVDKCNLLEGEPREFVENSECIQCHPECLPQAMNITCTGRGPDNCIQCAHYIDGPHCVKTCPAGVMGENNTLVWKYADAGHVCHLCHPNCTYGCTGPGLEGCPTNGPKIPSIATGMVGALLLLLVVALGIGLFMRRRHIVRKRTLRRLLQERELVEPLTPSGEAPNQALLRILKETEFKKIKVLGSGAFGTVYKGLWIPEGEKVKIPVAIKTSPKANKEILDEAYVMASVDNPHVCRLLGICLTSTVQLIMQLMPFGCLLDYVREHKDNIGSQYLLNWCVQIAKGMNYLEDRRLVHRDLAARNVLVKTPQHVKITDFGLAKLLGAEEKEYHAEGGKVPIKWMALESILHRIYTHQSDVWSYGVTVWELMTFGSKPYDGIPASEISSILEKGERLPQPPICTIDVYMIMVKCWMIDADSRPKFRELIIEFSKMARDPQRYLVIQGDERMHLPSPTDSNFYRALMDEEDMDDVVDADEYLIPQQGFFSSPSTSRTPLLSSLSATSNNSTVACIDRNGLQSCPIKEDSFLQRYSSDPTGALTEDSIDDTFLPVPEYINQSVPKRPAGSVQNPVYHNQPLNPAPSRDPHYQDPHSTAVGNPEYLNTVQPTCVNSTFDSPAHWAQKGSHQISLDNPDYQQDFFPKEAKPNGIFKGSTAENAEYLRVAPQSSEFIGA
Description: Antiproliferative activity (MTT) against BaF3 cells expressing the target EGFR mutations. It is filed as cell-based. As to conditions: BAF3 EGFR DEL T790M PURO POOL cells, read-out: IC50, BAF3 EGFR DEL T790M PURO POOL. The gist of the method: (§2)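 MTT read-out; BaF3 lines carrying EGFR mutations vs wildtype-EGFR BaF3 control.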

In test [3] the target is T2, BaF3 cells expressing the target EGFR mutations (Homo sapiens, UniProt P00533, T790M/L858R, cells depend on it).
T2 construct: IC50, BAF3 EGFR L858R-T790M PURO POOL; other: BAF3 EGFR L858R-T790M PURO POOL cells, MTT; IC50, BAF3 EGFR L858R-T790M PURO POOL; other: BAF3 EGFR L858R-T790M PURO POOL cells; MTT
T2 sequence (P00533 whole entry T790M/L858R): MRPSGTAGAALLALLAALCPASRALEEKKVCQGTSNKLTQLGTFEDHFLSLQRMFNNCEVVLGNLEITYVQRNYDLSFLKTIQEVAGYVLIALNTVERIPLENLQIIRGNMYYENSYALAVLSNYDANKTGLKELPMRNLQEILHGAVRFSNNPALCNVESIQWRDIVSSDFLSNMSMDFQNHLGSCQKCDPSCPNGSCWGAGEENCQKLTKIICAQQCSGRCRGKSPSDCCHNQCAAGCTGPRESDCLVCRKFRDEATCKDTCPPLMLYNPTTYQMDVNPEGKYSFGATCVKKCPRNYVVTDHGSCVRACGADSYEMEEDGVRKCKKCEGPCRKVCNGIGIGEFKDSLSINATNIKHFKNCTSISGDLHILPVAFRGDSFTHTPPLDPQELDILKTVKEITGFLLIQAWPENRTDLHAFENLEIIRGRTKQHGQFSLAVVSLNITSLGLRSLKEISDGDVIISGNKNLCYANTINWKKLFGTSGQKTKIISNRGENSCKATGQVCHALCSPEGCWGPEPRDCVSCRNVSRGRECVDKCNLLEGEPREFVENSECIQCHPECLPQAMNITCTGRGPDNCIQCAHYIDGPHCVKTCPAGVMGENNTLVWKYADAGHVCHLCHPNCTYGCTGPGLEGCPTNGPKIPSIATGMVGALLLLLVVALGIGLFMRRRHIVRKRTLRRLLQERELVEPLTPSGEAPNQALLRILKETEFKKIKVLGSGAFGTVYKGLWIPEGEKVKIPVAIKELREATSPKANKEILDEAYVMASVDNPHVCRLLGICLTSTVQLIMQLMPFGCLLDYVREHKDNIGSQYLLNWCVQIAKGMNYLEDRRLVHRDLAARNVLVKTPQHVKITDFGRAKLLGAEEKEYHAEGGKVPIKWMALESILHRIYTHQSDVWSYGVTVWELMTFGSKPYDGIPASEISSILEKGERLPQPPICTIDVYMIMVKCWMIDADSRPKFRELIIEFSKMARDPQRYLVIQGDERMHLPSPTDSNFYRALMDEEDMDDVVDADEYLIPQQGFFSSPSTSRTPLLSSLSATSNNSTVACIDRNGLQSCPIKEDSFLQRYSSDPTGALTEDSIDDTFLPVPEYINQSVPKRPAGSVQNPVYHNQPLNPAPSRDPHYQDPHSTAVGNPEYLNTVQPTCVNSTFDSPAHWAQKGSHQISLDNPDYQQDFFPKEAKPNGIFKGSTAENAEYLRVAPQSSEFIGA
The test is described as above. The format is cell-based. As to conditions: BAF3 EGFR L858R-T790M PURO POOL cells, read-out: IC50, BAF3 EGFR L858R-T790M PURO POOL. The gist of the method: as §2

Test [4] deals with BaF3 cells expressing wildtype EGFR. Description: Antiproliferative activity (MTT) against control BaF3 cells expressing wildtype EGFR. It is filed as cell-based. As to conditions: Mus musculus. The gist of the method:
as §2

Setting [5] is: EGFR L858R/T790M double mutation.
The mark [6] stands for this setting: 10 pt curves, 3 μM top concentration.

Among the data in US9834571B2, “Compounds for inhibiting cell proliferation in EGFR-driven cancers” (ARIAD Pharmaceuticals, Inc., priority 2012, dated 2017) are IC50 and GI50 values, retold here.

Read-outs that look alike come from different tables or passages of the source.

EGFR L858R, sequence (P00533 25-1210 L858R): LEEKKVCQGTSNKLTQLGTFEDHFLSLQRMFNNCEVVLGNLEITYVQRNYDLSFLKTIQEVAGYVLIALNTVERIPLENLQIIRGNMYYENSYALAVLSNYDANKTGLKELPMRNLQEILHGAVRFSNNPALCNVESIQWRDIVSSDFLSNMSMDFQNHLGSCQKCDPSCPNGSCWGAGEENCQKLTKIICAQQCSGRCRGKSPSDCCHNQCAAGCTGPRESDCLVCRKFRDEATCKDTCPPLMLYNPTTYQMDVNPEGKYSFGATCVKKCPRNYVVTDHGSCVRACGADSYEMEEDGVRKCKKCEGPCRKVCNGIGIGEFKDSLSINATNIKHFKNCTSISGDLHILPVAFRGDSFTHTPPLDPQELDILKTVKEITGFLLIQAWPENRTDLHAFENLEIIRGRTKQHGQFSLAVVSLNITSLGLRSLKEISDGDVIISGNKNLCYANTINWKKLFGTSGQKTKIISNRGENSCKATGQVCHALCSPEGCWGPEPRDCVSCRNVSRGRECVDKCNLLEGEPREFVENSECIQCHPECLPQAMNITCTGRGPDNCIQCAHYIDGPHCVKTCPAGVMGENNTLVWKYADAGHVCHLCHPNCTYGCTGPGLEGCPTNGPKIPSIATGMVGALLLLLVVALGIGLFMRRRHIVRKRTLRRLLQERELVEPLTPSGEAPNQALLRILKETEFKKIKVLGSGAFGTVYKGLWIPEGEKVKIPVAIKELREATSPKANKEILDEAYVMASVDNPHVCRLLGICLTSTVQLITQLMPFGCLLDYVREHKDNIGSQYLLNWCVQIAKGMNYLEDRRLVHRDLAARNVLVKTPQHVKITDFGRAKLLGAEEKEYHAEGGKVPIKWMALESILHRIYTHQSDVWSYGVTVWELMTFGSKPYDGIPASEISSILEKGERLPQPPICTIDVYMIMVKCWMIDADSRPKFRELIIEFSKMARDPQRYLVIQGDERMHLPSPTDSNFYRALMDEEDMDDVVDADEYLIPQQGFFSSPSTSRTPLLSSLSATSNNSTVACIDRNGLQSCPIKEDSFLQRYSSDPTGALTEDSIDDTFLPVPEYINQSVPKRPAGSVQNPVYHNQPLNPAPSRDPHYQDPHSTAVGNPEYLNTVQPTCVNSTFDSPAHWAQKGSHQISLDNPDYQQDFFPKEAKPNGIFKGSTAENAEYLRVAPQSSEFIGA

With `COc1cc(P(C)(C)=O)ccc1Nc1ncc(Cl)c(Oc2cccc(NC(=O)C#CCN(C)C)c2)n1` [Example 83, N-(3-((5-chloro-2-((4-(dimethylphosphoryl)-2-methoxyphenyl)amino)pyrimidin-4-yl)oxy)phenyl)-4-(dimethylamino)but-2-ynamide], the IC50 in test [1] (human EGFR native sequence) is under 50 nM; on EGFR L858R (EGFR L858R) it was under 50 nM; at EGFR L858R/T790M (setting [5]) it was under 50 nM; in test [4] (BAF3 PARENTAL cells (control)), at least 250 nM. In addition, the GI50 in test [2] is 101 to 250 nM; in test [3], at least 250 nM.

With `C=CC(=O)Nc1cc(Nc2ncc(Cl)c(Nc3ccccc3P(C)(C)=O)n2)c(OC)cc1OCC1CCOCC1` [Example 6, N-(5-((5-chloro-4-((2-(dimethylphosphoryl)phenyl)amino)pyrimidin-2-yl)amino)-4-methoxy-2-((tetrahydro-2H-pyran-4-yl)methoxy)phenyl)acrylamide], the IC50 in test [1] (human EGFR native sequence) is at least 250 nM; at EGFR L858R (EGFR L858R) it was under 50 nM; on EGFR L858R/T790M (setting [5]), 50 to 100 nM; in test [4] (BAF3 PARENTAL cells (control)), at least 250 nM. Besides, the GI50 lay in the range of 50 to 100 nM in test [2] and 101 to 250 nM in test [3].

As for `C=CC(=O)Nc1cc(Nc2ncc(Cl)c(Nc3ccccc3P(C)(C)=O)n2)c(OC)cc1N1CCC(N2CCCCC2)C1` (stereo not drawn) [Example 33, N-(5-((5-chloro-4-((2-(dimethylphosphoryl)phenyl)amino)pyrimidin-2-yl)amino)-4-methoxy-2-(3-(piperidin-1-yl)pyrrolidin-1-yl)phenyl)acrylamide], the IC50 in test [1] (human EGFR native sequence) was under 50 nM; on EGFR L858R (EGFR L858R), under 50 nM; at EGFR L858R/T790M (setting [5]), under 50 nM; in test [4] (BAF3 PARENTAL cells (control)), at least 250 nM. Further, the GI50 in test [2] and in test [3] was under 50 nM throughout.

For `C=CC(=O)Nc1cc(Nc2ncc(Cl)c(Nc3ccccc3P(C)(C)=O)n2)c(OC)cc1N1CCCC(N(C)C)C1` (stereo not drawn) [Example 30, N-(5-((5-chloro-4-((2-(dimethylphosphoryl)phenyl)amino)pyrimidin-2-yl)amino)-2-(3-(dimethylamino)piperidin-1-yl)-4-methoxyphenyl)acrylamide], the half-maximal inhibitory concentration (IC50) in test [1] (human EGFR native sequence) is under 50 nM; at EGFR L858R (EGFR L858R), under 50 nM; on EGFR L858R/T790M (setting [5]), under 50 nM; in test [4] (BAF3 PARENTAL cells (control)) it was at least 250 nM. The GI50 in test [2] and in test [3] was under 50 nM throughout.

`COc1cc(F)c(NC(=O)C#CC(C)(C)N2CCCC2)cc1Nc1ncc(Cl)c(Nc2ccccc2P(C)(C)=O)n1` [Example 90, N-(5-((5-chloro-4-((2-(dimethylphosphoryl)phenyl)amino)pyrimidin-2-yl)amino)-2-fluoro-4-methoxyphenyl)-4-methyl-4-(pyrrolidin-1-yl)pent-2-ynamide]: the IC50 was under 50 nM in test [1] (human EGFR native sequence), under 50 nM at EGFR L858R (EGFR L858R), under 50 nM on EGFR L858R/T790M (setting [5]) and at least 250 nM in test [4] (BAF3 PARENTAL cells (control)). In addition, the GI50 in test [2] and in test [3] was under 50 nM throughout.

In the case of `C=C(CN1CCN(C)CC1)C(=O)Nc1ccc(OC)c(Nc2ncc(Cl)c(Nc3ccccc3P(C)(C)=O)n2)c1` [Example 49, N-(3-((5-chloro-4-((2-(dimethylphosphoryl)phenyl)amino)pyrimidin-2-yl)amino)-4-methoxyphenyl)-2-((4-methylpiperazin-1-yl)methyl)acrylamide], the IC50 in test [1] (human EGFR native sequence) is under 50 nM; at EGFR L858R (EGFR L858R), under 50 nM; at EGFR L858R/T790M (setting [5]) it was under 50 nM; in test [4] (BAF3 PARENTAL cells (control)), at least 250 nM. The GI50 in test [2] and in test [3] was under 50 nM each time.

As to `C=CC(=O)Nc1ccc(OC2COC2)c(Nc2ncc(Cl)c(Nc3ccccc3P(C)(C)=O)n2)c1` [Example 138, N-(3-((5-chloro-4-((2-(dimethylphosphoryl)phenyl)amino)pyrimidin-2-yl)amino)-4-(oxetan-3-yloxy)phenyl)acrylamide], the IC50 (in test [1] (setting [6]); at EGFR L858R (setting [6]); on EGFR L858R/T790M (setting [6]); in test [4] (BAF3 parental cells)) was at least 250 nM each time. For the same compound, the GI50 in test [2] and in test [3] was at least 250 nM in each case.

Take `C=CC(=O)Nc1cc(Nc2ncc(Cl)c(Nc3ccccc3P(C)(C)=O)n2)c(OC)cc1N1CCC(N)C1` (stereo not drawn) [Example 57, N-(2-(3-aminopyrrolidin-1-yl)-5-((5-chloro-4-((2-(dimethylphosphoryl)phenyl)amino)pyrimidin-2-yl)amino)-4-methoxyphenyl)acrylamide]: the IC50 in test [1] (human EGFR native sequence) was under 50 nM; at EGFR L858R (EGFR L858R), under 50 nM; on EGFR L858R/T790M (setting [5]), under 50 nM; in test [4] (BAF3 PARENTAL cells (control)), at least 250 nM. The GI50 in test [2] and in test [3] was at least 250 nM throughout.

For `C=CC(=O)Nc1cc(Nc2ncc(Cl)c(Nc3ccccc3P(C)(C)=O)n2)c(OC)cc1OC(COC)CN1CCC1` (stereo not drawn) [Example 15, N-(2-((1-(azetidin-1-yl)-3-methoxypropan-2-yl)oxy)-5-((5-chloro-4-((2-(dimethylphosphoryl)phenyl)amino)pyrimidin-2-yl)amino)-4-methoxyphenyl)acrylamide], the IC50 in test [1] (human EGFR native sequence) was under 50 nM; on EGFR L858R (EGFR L858R) it was under 50 nM; at EGFR L858R/T790M (setting [5]), under 50 nM; in test [4] (BAF3 PARENTAL cells (control)) it was at least 250 nM. For the same compound, the GI50 in test [2] and in test [3] was under 50 nM in each case.

For the compound `C=CC(=O)Nc1cc(Nc2ncc(Cl)c(Nc3ccccc3P(C)(C)=O)n2)c(OC)cc1C#CCCN(C)C` [Example 128, N-(5-((5-chloro-4-((2-(dimethylphosphoryl)phenyl)amino)pyrimidin-2-yl)amino)-2-(4-(dimethylamino)but-1-yn-1-yl)-4-methoxyphenyl)acrylamide], the IC50 was under 50 nM in test [1] (setting [6]), under 50 nM at EGFR L858R (setting [6]), under 50 nM at EGFR L858R/T790M (setting [6]) and at least 250 nM in test [4] (BAF3 parental cells). For the same compound, the GI50 in test [2] and in test [3] was under 50 nM throughout.

As to `C=C(CN1CCN(S(C)(=O)=O)CC1)C(=O)Nc1ccc(OC)c(Nc2ncc(Cl)c(Nc3ccccc3P(C)(C)=O)n2)c1` [Example 44, N-(3-((5-chloro-4-((2-(dimethylphosphoryl)phenyl)amino)pyrimidin-2-yl)amino)-4-methoxyphenyl)-2-((4-(methylsulfonyl)piperazin-1-yl)methyl)acrylamide], the IC50 in test [1] (human EGFR native sequence) was under 50 nM; at EGFR L858R (EGFR L858R) it was under 50 nM; at EGFR L858R/T790M (setting [5]), under 50 nM; in test [4] (BAF3 PARENTAL cells (control)), at least 250 nM. The GI50 in test [2] and in test [3] was under 50 nM in each case.

For the compound `C=C(CN1CCCC1)C(=O)Nc1ccc(OC)c(Nc2ncc(Cl)c(Nc3ccccc3P(C)(C)=O)n2)c1` [Example 42, N-(3-((5-chloro-4-((2-(dimethylphosphoryl)phenyl)amino)pyrimidin-2-yl)amino)-4-methoxyphenyl)-2-(pyrrolidin-1-ylmethyl)acrylamide], the IC50 in test [1] (human EGFR native sequence) is under 50 nM; on EGFR L858R (EGFR L858R), under 50 nM; on EGFR L858R/T790M (setting [5]), under 50 nM; in test [4] (BAF3 PARENTAL cells (control)), at least 250 nM. Also, the GI50 in test [2] and in test [3] was under 50 nM throughout.

On to `C=C(CN1CCNC(=O)C1)C(=O)Nc1ccc(OC)c(Nc2ncc(Cl)c(Nc3ccccc3P(C)(C)=O)n2)c1` [Example 47, N-(3-((5-chloro-4-((2-(dimethylphosphoryl)phenyl)amino)pyrimidin-2-yl)amino)-4-methoxyphenyl)-2-((3-oxopiperazin-1-yl)methyl)acrylamide], for which the IC50 was under 50 nM in test [1] (human EGFR native sequence), under 50 nM at EGFR L858R (EGFR L858R), under 50 nM at EGFR L858R/T790M (setting [5]) and at least 250 nM in test [4] (BAF3 PARENTAL cells (control)). For the same compound, the GI50 in test [2] was 101 to 250 nM; in test [3], at least 250 nM.

Regarding `C=C(CN1CCCCC1)C(=O)Nc1ccc(OC)c(Nc2ncc(Cl)c(Nc3ccccc3P(C)(C)=O)n2)c1` [Example 43, N-(3-((5-chloro-4-((2-(dimethylphosphoryl)phenyl)amino)pyrimidin-2-yl)amino)-4-methoxyphenyl)-2-(piperidin-1-ylmethyl)acrylamide], the IC50 in test [1] (human EGFR native sequence) is under 50 nM; on EGFR L858R (EGFR L858R) it was under 50 nM; at EGFR L858R/T790M (setting [5]) it was under 50 nM; in test [4] (BAF3 PARENTAL cells (control)) it was at least 250 nM. In addition, the GI50 in test [2] and in test [3] was under 50 nM in each case.

What is called IC50 is the concentration at which inhibition is half-maximal.
